Source: US20030157708A1, “Cell stimulation apparatus and a cell stimulation method” (priority 2001, published 2003)

Assays:
Type in all cases: cell-based, mice
[1] = tested on: GABAA receptor β2 subunit; details: 7DIV granule cells, FIG. 10C; MK801 25 μM, CNQX 10 μM
[2] = tested on: NMDA receptor NR2C subunit; details: 7DIV granule cells, MK801 25 μM
cultured granule cells = assay: Release of NRG into conditioned media, read by CREB-phosphorylation of granule cells; details: living cultured granule cells
Protocol: In D, using cerebellar granule cells, CREB-phosphorylation was checked after the conditioned medium stimulation. Serum-starved cerebellar granule cells were treated (for 5 to 10 minutes) with conditioned media collected from pontine nuclus neuron and granule cell cultures. The conditioned media from pontine nuclei neurons was used for stimulation in a, b and c. In d, e and f, conditioned media were prepared from granule cell culture.
To detect CREB phosphorylation, 7DIV cultured granule cells were fixed with 4% paraformaldehyde for 10 minutes after conditioned media stimulation for 10 to 15 minutes, and stained with a polyclonal anti-NRG β1 antibody, a polyclonal anti-PCREB antibody (BioLabs). […] Alexa™ dyes (Molecular probe) were used as a secondary antibody.
The soluble forms released by PMA stimulation (60 minutes) were enriched using a spin column and added into the cultured granule cells. The stimulated granule cells were stained with anti-phospho-CREB antibody after fixation. The conditioned media from the pontine nuclei neurons was used for stimulation (a, b and c) and that from granule cell cultures for stimulation (d, e and f). […] The conditioned media (c and f) should have contained cleaved endogenous and recombinant NRG The subtraction of b from c and e from f indicated CREB-phosphorylation induced by sNRG that was from recombinant mNRG. […]

ErbB4 = ErbB4 tyrosine-phosphorylation activity of conditioned media (immunoprecipitation / anti-phosphotyrosine blot); details: PMA stimulation for 60 minutes
Protocol: In B, pontine nuclei neurons and granule cells with and without transfection of the transmembrane form of NRG were prepared and stimulated by PMA for 60 minutes and then the conditioned media were collected. Tyrosin-phosphorylation activity of the conditioned media was examined using cerebellar granule cells. The granule cell cultures were stimulated for 5 to 10 minutes with the conditioned media that were collected and concentrated. Lysates from granule cells were resolved by SDS-PAGE, and the blot was probed with an anti-phosphotyrosine antibody (4G10) after immunoprecipitation with anti-ErbB4 antibody. Tyrosine-phosphorylated bands of 180 kD were observed by stimulation (B). The conditioned media were collected from PN(non-transfected pontine neuclei neurons), tPN(transfected pontine neuclei neurons), GC(non-transfected granule cells), and tGC(transfected-granule cells). The result is summarized in C. The experiments were repeated independently three or four times.
After electrical stimulation (1 mA, 30˜60V outside the cells) for 30 minutes on […] cells which were transfected with recombinant full length mNRG, the conditioned media obtained from the cells were collected and concentrated using centricon 10 and 100 (Millipore) to cut off large (>100 kd) and small (<10 kd) molecular weight proteins. […]

C[C@]12N[C@H](Cc3ccccc31)c1ccccc12 [MK801]
β2 transcription at 1.0 and 100 Hz stimulation, block [1]: blocked
NR2C mRNA increase at 100 Hz (high frequency) stimulation, block ([2]; 30 minutes stimulation, TTX 1 μM, Cd 100 μM, EGTA 1 mM): strongly blocked
NR2C elevated transcription at 1 and 100 Hz, block ([2]; FIG. 10C): strongly blocked

[Cl-].[K+] [KC1]
release of NRG by stimulation (cultured granule cells): could not be observed

N#Cc1cc2[nH]c(=O)c(=O)[nH]c2cc1[N+](=O)[O-] [CNQX]
β2 transcription at 1.0 and 100 Hz stimulation, block [1]: blocked

CCCCCCCCCCCCCC(=O)O[C@@H]1[C@@H](C)[C@@]2(O)[C@@H](C=C(CO)C[C@]3(O)C(=O)C(C)=C[C@@H]23)[C@@H]2C(C)(C)[C@]12OC(C)=O [PMA, phorbol-12-myristate-13-acetate]
Tyrosine-phosphorylated bands of 180 kD with conditioned media from mNRG-transfected neurons (ErbB4): clearly observed
